Results taken from US20240158412A1 (Faxian Therapeutics, LLC, priority 2021, published 2024).
pIC50: −log10 of the molar value.

Target: USP7 (Homo sapiens, UniProt Q93009)
Experiment: biochemical
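Further: fluorescence intensity readout of USP7 enzymatic activity, reaction incubated 90 min at room temperature.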

Sequence of USP7 (Q93009 whole entry): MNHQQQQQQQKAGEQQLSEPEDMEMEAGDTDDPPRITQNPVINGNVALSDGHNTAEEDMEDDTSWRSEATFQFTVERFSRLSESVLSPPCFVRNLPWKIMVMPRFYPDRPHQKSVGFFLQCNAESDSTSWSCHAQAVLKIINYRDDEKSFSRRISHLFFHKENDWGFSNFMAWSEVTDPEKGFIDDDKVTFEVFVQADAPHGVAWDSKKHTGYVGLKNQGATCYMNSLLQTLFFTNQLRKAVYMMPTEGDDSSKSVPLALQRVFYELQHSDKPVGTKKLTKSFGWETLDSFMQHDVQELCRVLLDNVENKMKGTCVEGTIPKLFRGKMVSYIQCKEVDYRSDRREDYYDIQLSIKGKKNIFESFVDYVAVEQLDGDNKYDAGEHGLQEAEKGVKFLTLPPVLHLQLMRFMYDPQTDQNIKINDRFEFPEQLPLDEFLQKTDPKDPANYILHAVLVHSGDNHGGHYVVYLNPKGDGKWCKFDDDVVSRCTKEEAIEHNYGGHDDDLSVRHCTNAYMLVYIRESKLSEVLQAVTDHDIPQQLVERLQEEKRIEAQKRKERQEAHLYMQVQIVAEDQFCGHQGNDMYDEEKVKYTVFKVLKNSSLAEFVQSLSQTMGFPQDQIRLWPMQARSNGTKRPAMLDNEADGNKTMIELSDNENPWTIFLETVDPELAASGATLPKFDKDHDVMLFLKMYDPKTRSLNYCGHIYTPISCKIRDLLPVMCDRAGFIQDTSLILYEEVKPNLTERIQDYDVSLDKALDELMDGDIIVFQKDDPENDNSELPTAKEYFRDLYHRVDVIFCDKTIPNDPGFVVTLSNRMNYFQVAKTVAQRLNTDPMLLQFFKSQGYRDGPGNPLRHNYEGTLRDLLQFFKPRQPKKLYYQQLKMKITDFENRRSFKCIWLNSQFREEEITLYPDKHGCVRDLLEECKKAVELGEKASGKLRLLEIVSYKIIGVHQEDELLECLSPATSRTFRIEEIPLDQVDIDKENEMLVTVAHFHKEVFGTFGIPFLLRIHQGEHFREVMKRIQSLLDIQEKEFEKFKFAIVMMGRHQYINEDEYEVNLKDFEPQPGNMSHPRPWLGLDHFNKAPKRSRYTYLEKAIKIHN
Protocol: Example A. Biochemical Assay of USP7 Inhibitor Potency (IC50)
Fluorescence intensity assay of USP7 activity in the presence USP7 inhibitors. Recombinant USP7 protein (catalogue number E-519) and the fluorescence substrate ubiquitin-rhodamine 110 (Rh110) (catalogue number U-555) were purchased from Boston Biochem (840 Memorial Drive, Cambridge, MA 02139). The reaction was carried out in buffer 20 mM HEPES, pH 7.3, 150 mM NaCl, 1 mM TCEP, 125 μg/mL BSA at room temperature in a black 384-well Microplate (Greiner, catalog number 781076).
Test compounds were dissolved in DMSO to make 50 mM stock solution. […] In wells of a black 384-well Microplate, 15 μl of 100 pM of USP7 enzyme was added to each well with pre-diluted compounds and incubated at room temperature for 30 minutes, followed by addition of 10 μl of ubiquitin-rhodamine 110 (Rh110) substrate to reach 160 nM final concentration. The reaction mixtures were incubated for additional 90 minutes at room temperature. The fluorescence signal of the digested substrate was measured on an EnVision microplate reader (PerkinElmer,), using excitation at 485 nm and emission at 535 nm. The IC50 values were calculated using XLfit software.

pIC50 | SMILES
> 8.00 | N[C@H]1C[C@@H](N2CCCc3cc(Cl)cc(-c4ccnc5cc(CN6C(=O)CCC6=O)sc45)c32)C1 (single isomer, unassigned) [Example 42a, cis-1-((7-(1-(3-aminocyclobutyl)-6-chloro-1,2,3,4-tetrahydroquinolin-8-yl)thieno[3,2-b]pyridin-2-yl)methyl)pyrrolidine-2,5-dione]
7.00 to 8.00 | N[C@H]1C[C@H](N2CCCc3cc(Cl)cc(-c4ccnc5cc(CN6C(=O)CCC6=O)sc45)c32)C1 (single isomer, unassigned) [Example 42b, trans-1-((7-(1-(3-aminocyclobutyl)-6-chloro-1,2,3,4-tetrahydroquinolin-8-yl)thieno[3,2-b]pyridin-2-yl)methyl)pyrrolidine-2,5-dione]
< 6.00 | O=C1CCC(=O)N1Cc1cc2nccc(-c3cc(Cl)cc4c3N(C3CNC3)C[C@@H]3C[C@H]43)c2s1 (single isomer, unassigned) [Example 43a]
7.00 to 8.00 | O=C1CCC(=O)N1Cc1cc2nccc(-c3cc(Cl)cc4c3N(C3CNC3)C[C@H]3C[C@@H]43)c2s1 (single isomer, unassigned) [Example 43b]
7.00 to 8.00 | C[C@H]1CCc2cc(Cl)cc(-c3ccnc4cc(CN5C(=O)CCC5=O)sc34)c2N1[C@@H]1CCNC1 (single isomer, unassigned) [Example 44a]
6.00 to 7.00 | C[C@H]1CCc2cc(Cl)cc(-c3ccnc4cc(CN5C(=O)CCC5=O)sc34)c2N1[C@H]1CCNC1 (single isomer, unassigned) [Example 44b]
7.00 to 8.00 | C[C@@H]1CCc2cc(Cl)cc(-c3ccnc4cc(CN5C(=O)CCC5=O)sc34)c2N1[C@@H]1CCNC1 (single isomer, unassigned) [Example 44c]
> 8.00 | O=C1CCC(=O)N1Cc1cc2nccc(-c3cc(Cl)cc4c3N([C@H]3CCCNCC3)CCC4)c2s1 (single isomer, unassigned) [Example 47a]
> 8.00 | O=C1CCC(=O)N1Cc1cc2nccc(-c3cc(Cl)cc4c3N([C@@H]3CCCNCC3)CCC4)c2s1 (single isomer, unassigned) [Example 47b]
> 8.00 | O=C1CCC(=O)N1Cc1cc2nccc(-c3cc(Cl)cc4c3N([C@H]3CCCNC3)CCC4)c2s1 (single isomer, unassigned) [Example 51a]
7.00 to 8.00 | O=C1CCC(=O)N1Cc1cc2nccc(-c3cc(Cl)cc4c3N([C@@H]3CCCNC3)CCC4)c2s1 (single isomer, unassigned) [Example 51b]
> 8.00 | O=C1CCC(=O)N1Cc1cc2nccc(-c3cc(Cl)cc4c3C(N3CCNCC3)CCO4)c2s1 (single isomer, unassigned) [Example 52b]
7.00 to 8.00 | O=C1CCC(=O)N1Cc1cc2nccc(-c3cc(C(F)(F)F)cc4c3N([C@@H]3CCNC3)CCC4)c2s1 (single isomer, unassigned) [Example 78]
> 8.00 | O=C1CCC(=O)N1Cc1cc2nccc(-c3cc(C(F)(F)F)cc4c3N([C@H]3CCNC3)CCC4)c2s1 (single isomer, unassigned) [Example 79]
7.00 to 8.00 | O=c1ccn(CC(F)F)c(=O)n1Cc1cc2nccc(-c3cc(C(F)(F)F)cc4c3N([C@@H]3CCNC3)CCC4)c2s1 (single isomer, unassigned) [Example 80]
> 8.00 | O=c1ccn(CC(F)(F)F)c(=O)n1Cc1cc2ncnc(-c3cc(Cl)cc4c3N([C@@H]3CCNC3)CCC4)c2s1 (single isomer, unassigned) [Example 90]
> 8.00 | C[C@H]1C[C@@H](N2CCCc3cc(Cl)cc(-c4ccnc5cc(Cn6c(=O)ccn(CC(F)(F)F)c6=O)sc45)c32)CN1 (single isomer, unassigned) [Example 95a]
7.00 to 8.00 | C[C@@H]1C[C@H](N2CCCc3cc(Cl)cc(-c4ccnc5cc(Cn6c(=O)ccn(CC(F)(F)F)c6=O)sc45)c32)CN1 (single isomer, unassigned) [Example 95b]
> 8.00 | O=C1CCC(=O)N1Cc1cc2nccc(-c3cc(Cl)cc4c3N([C@H]3CNC[C@@H]3F)CCC4)c2s1 (single isomer, unassigned) [Example 96a]

pIC50 | SMILES
7.00 to 8.00 | O=C1CCC(=O)N1Cc1cc2nccc(-c3cc(Cl)cc4c3N([C@@H]3CNC[C@H]3F)CCC4)c2s1 (single isomer, unassigned) [Example 96b]
6.00 to 7.00 | CO[C@H]1CNC[C@@H]1N1CCCc2cc(Cl)cc(-c3ccnc4cc(CN5C(=O)CCC5=O)sc34)c21 (single isomer, unassigned) [Example 97a]
> 8.00 | CO[C@@H]1CNC[C@H]1N1CCCc2cc(Cl)cc(-c3ccnc4cc(CN5C(=O)CCC5=O)sc34)c21 (single isomer, unassigned) [Example 97b]
6.00 to 7.00 | Cn1cc(Cc2cc3nccc(-c4cc(Cl)cc5c4N([C@@H]4CCNC4)CCC5)c3s2)nn1 (single isomer, unassigned) [Example 98]
7.00 to 8.00 | Cn1cc(Cc2cc3nccc(-c4cc(Cl)cc5c4N([C@H]4CCNC4)CCC5)c3s2)nn1 (single isomer, unassigned) [Example 99]
> 8.00 | N#Cc1cc2c(c(-c3ccnc4cc(Cn5c(=O)ccn(CC(F)(F)F)c5=O)sc34)c1)N([C@H]1CCN([C@@H]3CC[C@H]3O)C1)CCC2 (single isomer, unassigned) [Example 107a]
7.00 to 8.00 | N#Cc1cc2c(c(-c3ccnc4cc(Cn5c(=O)ccn(CC(F)(F)F)c5=O)sc34)c1)N([C@H]1CCN([C@H]3CC[C@@H]3O)C1)CCC2 (single isomer, unassigned) [Example 107b]
> 8.00 | O=C1CCC(=O)N1Cc1sc2c(-c3cc(Cl)cc4c3N(C3CCNC3)CCC4)ccnc2c1F (single isomer, unassigned) [Example 108a]
7.00 to 8.00 | O=C1CCC(=O)N1Cc1sc2c(-c3cc(Cl)cc4c3N(C3CCNC3)CCC4)ccnc2c1F (single isomer, unassigned) [Example 108b]
7.00 to 8.00 | O=C1CCC(=O)N1Cc1cc2nccc(-c3cccc4c3N([C@H]3CCNC3)CCO4)c2s1 (single isomer, unassigned) [Example 111a]
< 6.00 | O=C1CCC(=O)N1Cc1cc2nccc(-c3cccc4c3N([C@@H]3CCNC3)CCO4)c2s1 (single isomer, unassigned) [Example 111b]
7.00 to 8.00 | C[C@H](c1cc2nccc(-c3cc(C#N)cc4c3N([C@H]3CCNC3)CCC4)c2s1)N1C(=O)CCC1=O (single isomer, unassigned) [Example 112a]
6.00 to 7.00 | C[C@@H](c1cc2nccc(-c3cc(C#N)cc4c3N([C@H]3CCNC3)CCC4)c2s1)N1C(=O)CCC1=O (single isomer, unassigned) [Example 112b]
6.00 to 7.00 | C[C@H](c1cc2nccc(-c3cc(C#N)cc4c3N([C@@H]3CCNC3)CCC4)c2s1)N1C(=O)CCC1=O (single isomer, unassigned) [Example 112c]
< 6.00 | C[C@@H](c1cc2nccc(-c3cc(C#N)cc4c3N([C@@H]3CCNC3)CCC4)c2s1)N1C(=O)CCC1=O (single isomer, unassigned) [Example 112d]
6.00 to 7.00 | O=C1CCC(=O)N1Cc1cc2nccc(-c3cc(Cl)cc4c3N([C@@H]3CCNC3)CC3CC43)c2s1 (single isomer, unassigned) [Example 113a]
7.00 to 8.00 | O=C1CCC(=O)N1Cc1cc2nccc(-c3cc(Cl)cc4c3N([C@@H]3CCNC3)CC3CC43)c2s1 (single isomer, unassigned) [Example 113b]
7.00 to 8.00 | O=C1CCC(=O)N1Cc1cc2nccc(-c3cc(Cl)cc4c3N(C3CCNC3)C[C@@H]3C[C@H]43)c2s1 (single isomer, unassigned) [Example 113c]
